Measured values: patent US11491135B2 (priority 2019, dated 2022)
Read-outs that look alike come from different tables or passages of the source.

Key:
[1] = test system: Clostridium perfringens ATCC13124; format: in vivo, Arbor Acre broiler chickens; conditions: 25 mg/kg orally every 12 h, 5 days
Clostridium perfringens = format: cell-based; conditions: 4, 8, 16 and 32 μg/ml, 30° C., 5 days, crystal violet absorbance at 570 nm
[2] = test system: Clostridium perfringens ATCC13124; format: cell-based; conditions: 0.7% BHIA plates, anaerobic 37° C., 48 h

COc1c(O)cc2occ(-c3ccc(O)cc3)c(=O)c2c1O [tectorigenin]
daily weight gain of broiler chickens, treatment group vs infected group [1]: significantly higher than that of the infected group
histopathological injury of small intestine (HE staining) [1]: significantly alleviated
degree of pathological changes of the necrotic enteritis in the intestinal tract (intestinal lesion scoring, 0-6) ([1]; chickens sacrificed at 21-day-old): significantly reduced
biofilm formation of Clostridium perfringens (Clostridium perfringens): effectively inhibit
gliding motility of Clostridium perfringens on BHIA ([2]; 8 μg/ml tectorigenin): significantly inhibit
gliding motility of Clostridium perfringens on BHIA ([2]; 32 μg/ml tectorigenin): significantly inhibit
